Data reported in patent US10759757B2, “Crystalline contrast agent for magnetic resonance imaging, kit and composition comprising it and their use” (Southern Medical University, priority 2016, dated 2020).
Where two headings read alike, the source gives them in different places.

Experiments:
[1] = Longitudinal relaxation time (T1) measurement, r1 relaxivity in deionized water; format: physicochemical
Description: IR spectra were recorded on a […] 550 infrared spectrometer. Elemental analyses for C, H, and N were performed on an EA1110 CHNS elemental analyzer. Thermogravimetric analysis (TGA) was performed on an SDTA851 Thermogravimetric Analyzer at a heating rate of 10° C. min^-1 under a nitrogen gas flow in an Al2O3 pan. Powder X-ray diffraction (PXRD) spectra were recorded with a Rigaku D/max-2200/PC. The X-ray generated from a sealed Cu tube was mono-chromated by a graphite crystal and collimated by a 0.5 mm MONOCAP (λ Cu-Kα=1.54178 Å). The tube voltage and current were 40 kV and 40 mA, respectively. […] The measurement of the longitudinal relaxation time T1 was conducted at 30° C. Five samples of compounds 1 and 2 were prepared with the concentrations of 31.25, 62.5, 125, 250, and 500 μM in deionized water, respectively. Before the T1 test, these samples were ultrasonicated for 2 min to dissolve the compounds homogeneously in deionized water. The T1 of deionized water was tested as background. The T1 of the MOF solution was corrected from the background. The measurement time of each sample was ca. 2 min. […] On each image, signal intensities were measured by drawing ROIs in the center of each vial. The T1 relaxation times were performed by fitting the acquired inversion recovery images to a following equation: […]1)), where M and M0 are measured and initial magnetization, respectively. […]

[2] = literature values; cited from earlier work

Row | Structure (SMILES) | r1 relaxivity ([1]; 0.5 T, 30° C., deionized water, 31.25 to 500 μM) [mM⁻¹ s⁻¹] | relaxivity rates (r1), MRI phantom measurement ([1]; 3T, in water) [mM^−1S^−1] | r1 relaxivity [2] [mM⁻¹ s⁻¹]
1 | O=C([O-])CN(CCN(CC(=O)[O-])CC(=O)O)CCN(CC(=O)[O-])CC(=O)O.[Gd+3] [Gd-DTPA] | 4.87 | 4.98 | –
2 | CNC(=O)CN(CCN(CCN(CC(=O)[O-])CC(=O)NC)CC(=O)[O-])CC(=O)[O-].[Gd+3] [OmniScan] | – | – | 4.1
